Read-outs that look alike come from different tables or passages of the source.
Key:
HeLa-ACE2 cells = experiment: cells; assay type: cell-based, human; conditions: Homo sapiens, HeLa-ACE2, read-out: HeLa-ACE-2 EC50 [μM] (Geomeans, n ≥ 2)
SARS-CoV-2 [1] = tested on: SARS-CoV-2
SARS-CoV-2 [2] = tested on: SARS-CoV-2; remark: listed apart in the source
in vitro [3] = conditions: human
in vitro [4] = conditions: human; remark: listed apart in the source
SARS-CoV-2 [5] = experiment: microbe, parasite or virus in culture
SARS-CoV-2 [6] = experiment: microbe, parasite or virus in culture; conditions: Severe acute respiratory syndrome coronavirus 2, Calu-3, 48 h, read-out: Calu-3 CoV-2 EC50 [μM]
SARS-CoV-2 [7] = experiment: Checkerboard synergy study with remdesivir (ZIP model, synergyfinder); assay type: cell-based
[8] = human, oral; cited from earlier work
[9] = CC50 [μM] (Geomeans, n ≥ 2 except where indicated: *n = 1)
[10] = HeLa-ACE2 Uninfected Tox CC50 [μM]
[11] = Severe acute respiratory syndrome coronavirus 2, HeLa-ACE2, 24 h, read-out: CoV-2 EC50 [μM] (Geomeans, n ≥ 2)
[12] = Severe acute respiratory syndrome coronavirus 2, HeLa-ACE2, read-out: HeLa-ACE2 CoV-2 EC50 [μM]
[13] = Severe acute respiratory syndrome coronavirus 2, HeLa-ACE2, read-out: SARS CoV-2 EC50 (μM)
[14] = HeLa-ACE2 Uninfected Tox CC50 [μM], Table 4, aggregated data, Geomean, n = 3
[15] = Severe acute respiratory syndrome coronavirus 2, HeLa-ACE2, read-out: HeLa-ACE2 CoV-2 EC50 [μM], Table 4, aggregated data, Geomean, n = 3

Row | SMILES | HeLa-ACE2 CC50/CoV-2 EC50 (SARS-CoV-2 [1]) | Calu3 SI CC50/CoV-2 EC50 (SARS-CoV-2 [2]; Table 4) | CC50 (in vitro [3]; [9]) | CC50 (in vitro [4]) | EC50 (SARS-CoV-2 [5]; [11]) | EC50 (SARS-CoV-2 [5]; [12]) | EC50 (SARS-CoV-2 [6]) | CC50 (in vitro [3]; Uninfected HeLa-ACE2 CC50 (μM)) | EC50 (SARS-CoV-2 [5]; [13]) | HeLa-ACE2 SI CC50/CoV-2 EC50 (SARS-CoV-2 [1]; Table 4) | CC50 (in vitro [3]; [14]) | EC50 (SARS-CoV-2 [5]; [15]) | other results
1 | COc1ccc2c(c1)[C@]1(CC1c1ccc3c(/C=C/c4ccc(CN5C[C@@H](C)O[C@@H](C)C5)cc4)n[nH]c3c1)C(=O)N2 (stereo partly drawn) [CFI-400945] | <1.02 | >5.88 | 7.18 µM | > 19800 nM | > 7 µM | > 7 µM | 3.36 µM |  |  |  |  |  | EC50 (HeLa-ACE2 cells): > 0.117 µM; HeLa-ACE2 SI CC50/CoV-2 EC50 (SARS-CoV-2 [1]): <1.02; CC50 (in vitro [3]; [10]): 7.18 µM
2 | CCCCC1CCc2cc(O)cc3c(CCN4CCN(c5cc(C)ccn5)CC4)c(C)n1c23 (stereo not drawn) [KC 11404] | >8.39 |  | > 20.9 µM |  | 2.5 µM |  |  | > 20.9 µM | 2.5 µM |  |  |  | Synergy score with remdesivir (δ) (SARS-CoV-2 [7]; Table 3): −2.817
3 | CN1CCN(c2ccc(C(=O)NCc3cnc(C#N)nc3NCC(C)(C)C)cc2)CC1 [Dutacatib] | >13.43 |  | > 36.1 µM |  | 2.69 µM |  |  | > 36.1 µM | 2.69 µM |  |  |  | Synergy score with remdesivir (δ) (SARS-CoV-2 [7]; Table 3): 2.955
4 | CCN(CC)CCCNc1ccnc2cc(Cl)ccc12 [AQ-13] | 32.34 |  | 25.9 µM |  | 0.8 µM |  |  |  | 0.8 µM |  |  |  | Synergy score with remdesivir (δ) (SARS-CoV-2 [7]; Table 3): −1.77
5 | CCOC(=O)[C@@H]1O[C@H]1C(=O)N[C@@H](CC(C)C)C(=O)N1CCN(Cc2ccc(OC)c(OC)c2OC)CC1 [NCO 700] | >50.44 |  | > 39.8 µM |  | 0.79 µM |  |  | > 39.8 µM | 0.79 µM |  |  |  | Synergy score with remdesivir (δ) (SARS-CoV-2 [7]; Table 3): 0.209
6 | C=C(C)[C@]12C[C@@H](C)[C@@]34O[C@](Cc5ccccc5)(O[C@@H]1[C@@H]3C=C(COC(=O)Cc1ccc(O)c(OC)c1)C[C@]1(O)C(=O)C(C)=C[C@@H]41)O2 [Resiniferatoxin] |  | 19.13 |  |  |  | 1.3 µM | 0.903 µM |  |  | 5.53 |  |  | CC50 (in vitro [3]): 7.17 µM; CC50 at 48 h (in vitro [4]): 17300 nM
7 | CC[C@H]1CN2CCc3cc(OC)c(OC)cc3[C@@H]2C[C@@H]1C[C@H]1NCCc2cc(O)c(OC)cc21 [Cephaeline] |  | 34.84 |  |  |  | 0.017 µM | 0.142 µM |  |  | 12.66 |  |  | CC50 (in vitro [3]): 0.212 µM; CC50 at 48 h (in vitro [4]): 4960 nM
8 | N=C(N)c1ccc2cc(OC(=O)c3ccc(CNC(=O)CCCC(=O)O)o3)ccc2c1 [TO-195] |  | >45 |  | > 29900 nM |  |  | 0.657 µM |  |  | >6 | > 39.8 µM | > 9.59 µM | 
9 | CCCCCCCCCCCCCC(=O)O[C@@H]1[C@@H](C)[C@@]2(O)[C@@H](C=C(CO)C[C@]3(O)C(=O)C(C)=C[C@@H]23)[C@@H]2C(C)(C)[C@]12OC(C)=O [Phorbol 12-myristate 13-acetate] |  | 1384.37 |  | 22500 nM |  |  | 0.016 µM |  |  | 2.89 | 0.201 µM | 0.07 µM | 
10 | COC(=O)C1=C(C)NC(C)=C(C(=O)OC)C1c1cc([N+](=O)[O-])ccc1OCCCCNC[C@H](O)COc1ccccc1 [YM 161514] | 6.08 |  | 11.3 µM |  | 1.86 µM |  |  | 11.3 µM | 1.86 µM |  |  |  | EC50 (HeLa-ACE2 cells): > 8.47 µM; Synergy score with remdesivir (δ) (SARS-CoV-2 [7]; Table 1, ZIP model, δ>10 synergy, δ<−10 antagonism, between additive): 0.601; Synergy score with remdesivir (δ) (SARS-CoV-2 [7]; Table 3): 0.60
11 | COc1ccc2c(c1)CN(C)CC2c1ccc(Cl)c(Cl)c1 (stereo not drawn) [diclofensine] | <1.28 |  | 10.1 µM |  | > 7.89 µM |  |  | > 40 µM | 6.06 µM |  |  |  | EC50 (HeLa-ACE2 cells): > 9.59 µM; Cmax [8]: ~0.03 µM; t1/2 [8]: ~15 h (human, oral)(25)
12 | COc1ccc2c(O[C@@H]3C[C@H]4C(=O)N[C@]5(C(=O)NS(=O)(=O)C6CC6)C[C@H]5/C=C\CCCCN(C)C(=O)[C@@H]4C3)cc(-c3nc(C(C)C)cs3)nc2c1C [Simeprevir] | >2.81 |  | > 22.2 µM |  | > 7.88 µM |  |  | > 22.2 µM |  |  |  |  | Cmax [8]: ~32 µM; t1/2 [8]: ~16 h (human oral)(21, 22)
13 | O=c1[nH]c(=O)n([C@@H]2O[C@H](CO)[C@@H](O)[C@H]2O)cc1F [Analog of OGT-719] |  | 7.44 |  | 8730 nM |  |  | 1.17 µM |  |  | 0.03 | 0.109 µM | 4.02 µM | 
14 | COc1ccc2c(c1)c(CC(=O)NO)c(C)n2C(=O)c1ccc(Cl)cc1 [oxametacin] |  |  |  | 17700 nM |  | 9.14 µM | 3.56 µM |  |  |  |  |  | HeLa-ACE2 SI CC50/CoV-2 EC50 (SARS-CoV-2 [1]): 0.64; Calu3 SI CC50/CoV-2 EC50 (SARS-CoV-2 [2]): 4.98; CC50 (in vitro [3]; [10]): 5.87 µM
15 | CC[C@H]1CN2CCc3cc(OC)c(OC)cc3[C@@H]2C[C@@H]1C[C@H]1NCCc2cc(OC)c(OC)cc21 [Emetine] |  | 19.97 |  | 8870 nM |  |  | 0.444 µM |  |  | 5.66 | 0.34 µM | 0.06 µM | 
16 | CO[C@H]1[C@@H](O)C[C@H](O[C@H]2[C@@H](O)C[C@H](O[C@H]3[C@@H](O)C[C@H](O[C@H]4CC[C@@]5(C)[C@H](CC[C@@H]6[C@@H]5C[C@@H](O)[C@]5(C)[C@@H](C7=CC(=O)OC7)CC[C@]65O)C4)O[C@@H]3C)O[C@@H]2C)O[C@@H]1C [Metildigoxin] |  | 6.22 |  |  |  | 0.284 µM | 0.399 µM |  |  | 0.56 |  |  | CC50 (in vitro [3]): 0.159 µM; CC50 at 48 h (in vitro [4]): 1240 nM
17 | CC(=O)O[C@H]1C[C@H](O[C@H]2[C@@H](O)C[C@H](O[C@H]3[C@@H](O)C[C@H](O[C@H]4CCC5(C)[C@H](CC[C@@H]6[C@@H]5CCC5(C)[C@@H](C7=CC(=O)OC7)[C@@H](O)CC65O)C4)O[C@@H]3C)O[C@@H]2C)O[C@H](C)[C@H]1O[C@@H]1O[C@H](CO)[C@@H](O)[C@H](O)[C@H]1O (stereo partly drawn) [[…]] |  | 4.90 |  | 3370 nM |  |  | 0.688 µM |  |  | 2.175 | 1.75 µM | 0.803 µM | 
18 | C[C@H]1O[C@@H](O[C@H]2[C@@H](O)C[C@@H](O[C@@H]3[C@@H](O)C[C@H](O[C@H]4CC[C@@]5(C)[C@H](CC[C@@H]6[C@@H]5C[C@@H](O)[C@]5(C)[C@@H](C7=CC(=O)OC7)CC[C@]65O)C4)O[C@@H]3C)O[C@@H]2C)C[C@H](O)[C@@H]1O (stereo in doubt) [Digoxin] | 0.72 | >29.80 | 0.12 µM | > 5040 nM | 0.166 µM | 0.166 µM | 0.17 µM |  |  |  |  |  | EC50 (HeLa-ACE2 cells): 0.325 µM; HeLa-ACE2 SI CC50/CoV-2 EC50 (SARS-CoV-2 [1]): 0.72; CC50 (in vitro [3]; [10]): 0.12 µM
19 | Nc1nc(N)c2nc(CCc3ccc(C(=O)N[C@@H](CCC(=O)O)C(=O)O)cc3)cnc2n1 [10-deazaaminopterin] |  |  |  |  |  |  |  |  |  |  |  |  | interaction with remdesivir (SARS-CoV-2 [7]): synergized; maximal efficacy (SARS-CoV-2 [7]; compound alone, over the range of concentrations tested): 40%; maximal efficacy (SARS-CoV-2 [7]; with addition of EC2 of remdesivir): ~65%; maximal efficacy (SARS-CoV-2 [7]; with addition of EC24 of remdesivir): > 80%
20 | Nc1ncnc2c1ccn2[C@@H]1O[C@H](CO)[C@@H](O)[C@H]1O [TUBERCIDIN] |  | 9.68 |  | 1070 nM |  |  | 0.111 µM |  |  | 3.04 | 0.557 µM | 0.183 µM | 

Reference: patent publication US20230346820A1, “METHODS AND COMPOSITIONS FOR THE TREATMENT OF SARS-COV-2” (priority 2020, published 2023)
